Consider nine compounds from ChEMBL document CHEMBL5108051, “Improving the Antimicrobial Performance of Amphiphilic Cationic Antimicrobial Peptides Using Glutamic Acid Full-Scan and Positive Charge Compensation Strategies” (J Med Chem, 2022).

Data set [1] is described as follows: Cytotoxicity against human Glomerular mesenchymal cell assessed as reduction in cell viability at 0 to 128 uM incubated for 1 hr by Resazurin cell viability kit. The format is toxicity, cell-based. The conditions noted are these: glomerular mesenchymal cells, dose 0-128 µM.
Data set [2] relates to Staphylococcus aureus. The data set is described as follows: Antimicrobial activity against Staphylococcus aureus ATCC 25923 assessed as fold increase in MIC in presence of KCl. In kind it is functional.
Data set [3] deals with Escherichia coli. The data set is described as follows: Antibacterial activity against Escherichia coli ATCC 25922 assessed as growth inhibition measured after 18 to 24 hrs by CLSI based broth microdilution method. In kind it is functional. The conditions noted are these: time 18-24 hrs. For orientation: In broth dilution the organism is exposed to a series of concentrations in liquid medium.

Data set [4] has as its system Escherichia coli. The data set is described as follows: Antimicrobial activity against Escherichia coli ATCC 25922 in presence of MgCl2. In kind it is functional, organism-based.
A further data set deals with Pseudomonas aeruginosa. The data set is described as follows: Antibacterial activity against Pseudomonas aeruginosa ATCC 27853 assessed as growth inhibition measured after 18 to 24 hrs by CLSI based broth microdilution method. The format is functional. The note with it: time 18-24 hrs.
The next data set concerns Erythrocyte. The data set is described as follows: Hemolytic activity against mouse RBC measured after 1 hrs. In kind it is toxicity, cell-based.
Another data set has as its system Klebsiella pneumoniae. The experiment in a line: Antibacterial activity against Klebsiella pneumoniae ATCC 700603 assessed as growth inhibition measured after 18 to 24 hrs by CLSI based broth microdilution method. The note with it: time 18-24 hrs. In kind it is functional.
Data set [5] concerns Staphylococcus aureus. The experiment in a line: Antimicrobial activity against Staphylococcus aureus ATCC 25923 assessed as fold increase in MIC in presence of NaCl. In kind it is functional.
Data set [6] has as its system Escherichia coli. The data set is described as follows: Antimicrobial activity against Escherichia coli ATCC 25922 in presence of KCl. The format is functional, organism-based.
The test system of data set [7] is Staphylococcus aureus. The data set is described as follows: Antibacterial activity against Staphylococcus aureus ATCC 25923 assessed as growth inhibition measured after 18 to 24 hrs by CLSI based broth microdilution method. The conditions noted are these: time 18-24 hrs. In kind it is functional.
The subject of data set [8] is Staphylococcus aureus. The experiment in a line: Antimicrobial activity against Staphylococcus aureus ATCC 25923 assessed as fold increase in MIC in presence of MgCl2. In kind it is functional.
Another data set deals with Bacillus subtilis. The data set is described as follows: Antibacterial activity against Bacillus subtilis ATCC 23857 assessed as growth inhibition measured after 18 to 24 hrs by CLSI based broth microdilution method. The format is functional. The note with it: time 18-24 hrs.
Data set [9] relates to Staphylococcus aureus. The data set is described as follows: Antimicrobial activity against Staphylococcus aureus ATCC 25923 assessed as increase fold in increase MIC in presence of FeCl3. The format is functional.
In data set [10] the test system is Escherichia coli. The experiment in a line: Antimicrobial activity against Escherichia coli ATCC 25922 in presence of NaCl. In kind it is functional, organism-based.
Data set [11] can be described thus: Stability of compound in serum measured after 1 to 6 hrs by RP-HPLC analysis. The conditions noted are these: time 1-6 hrs. The format is ADME, cell-free.
In data set [12] the test system is Escherichia coli. The experiment in a line: Antibacterial activity against Escherichia coli ATCC 25922 assessed as fold increase in MIC measured after 15 passages by resistance development assay relative to control. The format is functional.
The subject of data set [13] is Cell membrane. The data set is described as follows: Induction of cell membrane disruption in Escherichia coli ATCC 25922 assessed as increase in PI uptake measured after 30 to 120 mins by propidium iodide staining based FACS flow cytometry analysis (reference value: 6.0 %). The conditions noted are these: time 30-120 min. The format is subcellular. Background: A flow cytometer gives signals particle by particle.

Data set [14] deals with Staphylococcus aureus. The data set is described as follows: Antimicrobial activity against Staphylococcus aureus ATCC 25923 in presence of NaCl. The format is functional, organism-based.
The test system of data set [15] is Cell membrane. The data set is described as follows: Induction of cell membrane disruption in Staphylococcus aureus ATCC 25923 assessed as increase in PI uptake measured after 30 to 120 mins by propidium iodide staining based FACS flow cytometry analysis (reference value: 15%). The format is subcellular. The conditions noted are these: time 30-120 min.
In data set [16] the test system is Staphylococcus aureus. The data set is described as follows: Antimicrobial activity against Staphylococcus aureus ATCC 25923 in presence of FeCl3. The format is functional, organism-based.
Data set [17] concerns Staphylococcus aureus. The data set is described as follows: Antimicrobial activity against Staphylococcus aureus ATCC 25923 in presence of MgCl2. In kind it is functional, organism-based.
The subject of data set [18] is Staphylococcus aureus. The data set is described as follows: Antibacterial activity against Staphylococcus aureus ATCC 25923 assessed as fold increase in MIC measured after 15 passages by resistance development assay. In kind it is functional.
Data set [19] has as its system Staphylococcus aureus. The data set is described as follows: Antimicrobial activity against Staphylococcus aureus ATCC 25923 in presence of KCl. In kind it is functional, organism-based.

Values after ≈ are worked out from the molar mass of the structure shown. Active and inactive are the calls of the source. The calls are words filed in the database; no cut-off is given here. Square brackets hold non-standard residues; d marks the D form. Peptide text beside a SMILES is read from it. ξ: configuration not given here. Ile(3ξ) = CCC(C)[C@H](N)C(=O)O; ξK = NCCCCC(N)C(=O)O

For the compound `CC(C)C[C@H](NC(=O)[C@H](CC(C)C)NC(=O)[C@H](CCCCN)NC(=O)[C@H](CCC(=O)O)NC(=O)[C@H](CC(C)C)NC(=O)[C@H](CC(C)C)NC(=O)[C@H](CCCCN)NC(=O)[C@H](C)NC(=O)[C@@H](NC(=O)[C@H](CCCCN)NC(=O)[C@@H]1CCCN1C(=O)[C@H](CC(C)C)NC(=O)[C@@H](N)Cc1ccccc1)C(C)C)C(N)=O` (H-FLPKVAKLLEKLL-NH2), the 50% cytotoxic concentration (CC50) at 1 h in data set [1] was over 128 µM. Moreover, the “fold change (FC)” value in the data set with Staphylococcus aureus [2], in the data set on Staphylococcus aureus [5], in the data set with Staphylococcus aureus [8] and in the data set on Staphylococcus aureus [9] was 2 in each case. Also, the MIC in the data set with Escherichia coli [3] is 8 µM (≈ 12.1 µg/mL); in the data set on Pseudomonas aeruginosa it was 16 µM (≈ 24.2 µg/mL); in the data set with Klebsiella pneumoniae, 32 µM (≈ 48.4 µg/mL); with Staphylococcus aureus [7], 8 µM (≈ 12.1 µg/mL); in the data set on Bacillus subtilis, 8 µM (≈ 12.1 µg/mL). In addition, the result in the data set with Escherichia coli [4], in the data set on Escherichia coli [6] and with Escherichia coli [10] was Active. The same compound yielded an MHC10 with Erythrocyte of over 256 µM.
With `CC(C)C[C@H](NC(=O)[C@H](CC(C)C)NC(=O)C(CCCCN)NC(=O)[C@H](CCC(=O)O)NC(=O)[C@H](CC(C)C)NC(=O)[C@H](CC(C)C)NC(=O)[C@H](CCCCN)NC(=O)[C@H](CCCCN)NC(=O)[C@@H](NC(=O)[C@H](CCCCN)NC(=O)[C@@H]1CCCN1C(=O)[C@H](CC(C)C)NC(=O)[C@@H](N)Cc1ccccc1)C(C)C)C(N)=O` (stereo partly specified) (H-FLPKVKKLLE[ξK]LL-NH2), the MIC with Escherichia coli [3] was determined as 8 µM (≈ 12.5 µg/mL); in the data set with Pseudomonas aeruginosa, 16 µM (≈ 25.1 µg/mL); in the data set on Klebsiella pneumoniae, 16 µM (≈ 25.1 µg/mL); in the data set on Staphylococcus aureus [7], 32 µM (≈ 50.2 µg/mL); in the data set with Bacillus subtilis it was 32 µM (≈ 50.2 µg/mL). This compound also returned an MHC10 in the data set with Erythrocyte of over 256 µM.
As for `CC(C)C[C@H](NC(=O)[C@H](CC(C)C)NC(=O)[C@H](CCC(=O)O)NC(=O)[C@H](CCCCN)NC(=O)[C@H](CC(C)C)NC(=O)[C@H](CC(C)C)NC(=O)[C@H](CCCCN)NC(=O)[C@H](CCCCN)NC(=O)[C@@H](NC(=O)[C@H](CCCCN)NC(=O)[C@@H]1CCCN1C(=O)[C@H](CC(C)C)NC(=O)[C@@H](N)Cc1ccccc1)C(C)C)C(N)=O` (H-FLPKVKKLLKELL-NH2), the MIC came to 16 µM (≈ 25.1 µg/mL) in the data set with Escherichia coli [3]; 16 µM (≈ 25.1 µg/mL) with Pseudomonas aeruginosa; 16 µM (≈ 25.1 µg/mL) in the data set with Klebsiella pneumoniae; 32 µM (≈ 50.2 µg/mL) in the data set on Staphylococcus aureus [7]; 8 µM (≈ 12.5 µg/mL) with Bacillus subtilis. In addition, the MHC10 in the data set with Erythrocyte was over 256 µM.
`CC(C)C[C@H](NC(=O)[C@H](CC(C)C)NC(=O)[C@H](CCC(=O)O)NC(=O)[C@H](CO)NC(=O)[C@H](CC(C)C)NC(=O)[C@H](CC(C)C)NC(=O)[C@H](CCCCN)NC(=O)[C@H](CCCCN)NC(=O)[C@@H](NC(=O)[C@H](CCCCN)NC(=O)[C@@H]1CCCN1C(=O)[C@H](CC(C)C)NC(=O)[C@@H](N)Cc1ccccc1)C(C)C)C(N)=O` (H-FLPKVKKLLSELL-NH2): the MIC is 32 µM (≈ 48.9 µg/mL) with Escherichia coli [3]; 32 µM (≈ 48.9 µg/mL) in the data set on Pseudomonas aeruginosa; 64 µM (≈ 97.7 µg/mL) with Klebsiella pneumoniae; 64 µM (≈ 97.7 µg/mL) with Staphylococcus aureus [7]; 16 µM (≈ 24.4 µg/mL) in the data set with Bacillus subtilis. For the same compound, the MHC10 with Erythrocyte is over 256 µM.
In the case of `CCC(C)[C@H](NC(=O)[C@@H]1CCCN1C(=O)[C@H](CC(C)C)NC(=O)[C@@H](N)Cc1ccccc1)C(=O)N[C@H](C(=O)N[C@@H](C)C(=O)N[C@@H](CCCCN)C(=O)N[C@@H](CC(C)C)C(=O)N[C@@H](CC(C)C)C(=O)N[C@@H](CO)C(=O)N[C@@H](CCCCN)C(=O)N[C@@H](CC(C)C)C(=O)N[C@@H](CC(C)C)C(N)=O)C(C)C` (stereo partly specified) (H-FLP[Ile(3ξ)]VAKLLSKLL-NH2), the MIC in the data set with Escherichia coli [3] is over 128 µM; in the data set on Pseudomonas aeruginosa it was over 128 µM; with Klebsiella pneumoniae it was over 128 µM; in the data set with Staphylococcus aureus [7] it was 8 µM (≈ 11.6 µg/mL); with Bacillus subtilis, 4 µM (≈ 5.82 µg/mL). Moreover, in the data set with Erythrocyte, the MHC10 worked out at 17.97 µM.
For the compound `CCC(C)[C@H](NC(=O)[C@@H]1CCCN1C(=O)[C@H](CC(C)C)NC(=O)[C@@H](N)Cc1ccccc1)C(=O)N[C@H](C(=O)N[C@@H](CCCCN)C(=O)N[C@@H](CCCCN)C(=O)N[C@@H](CC(C)C)C(=O)N[C@@H](CC(C)C)C(=O)N[C@@H](CCC(=O)O)C(=O)N[C@@H](CCCCN)C(=O)N[C@@H](CC(C)C)C(=O)N[C@@H](CC(C)C)C(N)=O)C(C)C` (stereo partly specified) (H-FLP[Ile(3ξ)]VKKLLEKLL-NH2), the MIC with Escherichia coli [3] worked out at 8 µM (≈ 12.4 µg/mL); in the data set on Pseudomonas aeruginosa, 8 µM (≈ 12.4 µg/mL); in the data set with Klebsiella pneumoniae, 16 µM (≈ 24.8 µg/mL); with Staphylococcus aureus [7] it was 4 µM (≈ 6.21 µg/mL); with Bacillus subtilis it was 4 µM (≈ 6.21 µg/mL). The compound also showed an MHC10 in the data set with Erythrocyte of 42.55 µM.
`CCC(C)[C@H](NC(=O)[C@@H]1CCCN1C(=O)[C@H](CC(C)C)NC(=O)[C@@H](N)Cc1ccccc1)C(=O)N[C@H](C(=O)N[C@@H](CCCCN)C(=O)N[C@@H](CCCCN)C(=O)N[C@@H](CC(C)C)C(=O)N[C@@H](CC(C)C)C(=O)N[C@@H](CCCCN)C(=O)N[C@@H](CCC(=O)O)C(=O)N[C@@H](CC(C)C)C(=O)N[C@@H](CC(C)C)C(N)=O)C(C)C` (stereo partly specified) (H-FLP[Ile(3ξ)]VKKLLKELL-NH2): the MIC with Escherichia coli [3] worked out at 8 µM (≈ 12.4 µg/mL); with Pseudomonas aeruginosa, 8 µM (≈ 12.4 µg/mL); in the data set with Klebsiella pneumoniae it was 16 µM (≈ 24.8 µg/mL); in the data set on Staphylococcus aureus [7] it was 4 µM (≈ 6.21 µg/mL); in the data set on Bacillus subtilis it was 4 µM (≈ 6.21 µg/mL). Further, in the data set with Erythrocyte, the MHC10 was 53.73 µM.
Consider `CO[C@H]1/C=C/O[C@@]2(C)Oc3c(C)c(O)c4c(O)c(c(/C=N/N5CCN(C)CC5)c(O)c4c3C2=O)NC(=O)/C(C)=C\C=C\[C@H](C)[C@H](O)[C@@H](C)[C@@H](O)[C@@H](C)[C@H](OC(C)=O)[C@@H]1C` [RIFAMPIN], for which the Stability entry in [11] is listed as “Stable”. Moreover, the “fold change (FC)” value was determined as 16 with Escherichia coli [12] and 4096 in the data set with Staphylococcus aureus [18]. In addition, the MIC in the data set with Escherichia coli [3] was 4 µM (≈ 3.29 µg/mL); in the data set on Pseudomonas aeruginosa, 32 µM (≈ 26.3 µg/mL); in the data set on Klebsiella pneumoniae it was 32 µM (≈ 26.3 µg/mL); in the data set with Staphylococcus aureus [7] it was under 1 µM; with Bacillus subtilis it was under 1 µM. Besides, the Activity in the data set with Cell membrane [13] was found to be 17.4%; in the data set with Cell membrane [15], 3.45%. For the same compound, the outcome in the data set with Staphylococcus aureus [14], in the data set on Staphylococcus aureus [16], with Staphylococcus aureus [17] and in the data set on Staphylococcus aureus [19] was Active.
GENTAMICIN: the fold change (FC) came out at 128 with Escherichia coli [12] and 512 with Staphylococcus aureus [18].

One may read the CC50 as the concentration giving 50% cytotoxicity. A word on the MIC: it is the lowest concentration found to suppress growth.
